Results: US9976170B2, “Method for evaluating bacterial cell wall integrity” (UNIVERSIDAD AUTONOMA DE MADRID, priority 2011, dated 2018)
Like-named read-outs stand apart in the source and are kept apart here.

Assays:
Format in all cases: cell-based
[1] = tested on: strain of Escherichia coli with intermediate sensitivity; assay: technique for evaluating cell wall integrity, Examples 1 and 3; settings: for incubation time at which a clear effect started to show: only after high dose (32/16)
Text: (§1) Three different strains of Escherichia coli were exposed to the β-lactam antibiotic, amoxicilin, together with the β-lactamase inhibitor, clavulanic acid, and processed by means of the technique for evaluating cell wall integrity of the present invention. […] The doses of antibiotic were chosen according to the cutoff points indicated by the Clinical and Laboratory Standards Institute (CLSI). […] According to the disc diffusion data, one of the strains is a sensitive strain, another strain is a strain with intermediate sensitivity and the remaining strain is a resistant strain.
(§2) A sensitive strain, a strain with intermediate sensitivity and another resistant strain of E. coli were exposed to amoxicilin together with clavulanic acid in Mueller-Hinton liquid medium and processed by means of the technique for evaluating cell wall integrity of the present invention. […] The incubation times with the antibiotic were 5, 10, 20, 30, 40, 60 and 75 minutes.

[2] = tested on: sensitive strain of Escherichia coli; assay: as above; settings: for lysis of the bacteria, showing the nucleoids: exponential liquid culture
Text: as §1, §2

[3] = tested on: resistant strain of Escherichia coli; assay: as above
Text: as §1, §2

[4] = tested on: 11 different strains of E. coli isolated in a Microbiology Service; assay: technique for evaluating cell wall integrity on hospital isolates; settings: of 11 strains, 1 hour
Procedure: Following the results of the preceding experiment (Example 1), 11 different strains of E. coli isolated in a Microbiology Service were studied. After growing on a dish with Mueller-Hinton medium for 24 hours, they were exposed to amoxicilin together with clavulanic acid in Mueller-Hinton liquid medium for 1 hour, after which they were processed by means of the technique for evaluating cell wall integrity according to the present invention.

[5] = tested on: amoxicilin/clavulanic acid-sensitive E. coli strain
Procedure: The liquid with the cells is included in an agarose microgel which is dehydrated in alcohols and/or air dried or dried in an oven and stained with fluorochrome. It is the same process described in detail above, but without incubation with lysis solution.

[6] = tested on: sensitive strain of E. coli; assay: background of extracellular DNA fragments, processed without the step of lysis (FIG. 8); settings: 40 minutes, after 24 hours on a dish
Procedure: The strains were processed without the step of lysis by exposure to the lysis solution.
The liquid with the cells is included in an agarose microgel which is dehydrated in alcohols and/or air dried or dried in an oven and stained with fluorochrome. It is the same process described in detail above, but without incubation with lysis solution. The background can be evaluated rapidly after 15-20 minutes that it takes to perform the technique. The preparations are permanent.

[7] = tested on: Enterococcus faecium, ampicillin- and benzylpenicillin-resistant strain; assay: MIC by microdilution and/or E-test
Text: (§3) The strains and the antibiotics used were: • Gram+ • Enterococcus faecalis.
(§4) The doses of antibiotic applied were 0, the MIC determined in the Microbiology Laboratory by means of the microdilution and/or E-test technique, and those of the cutoff points of sensitivity and resistance indicated by the Clinical and Laboratory Standards Institute (CLSI) for each strain. A dose 10 times higher than the MIC was also used.

[8] = tested on: Enterococcus faecalis, ampicillin-sensitive and benzylpenicillin-resistant strain; assay: MIC by microdilution and/or E-test
Text: as §3, §4

[9] = tested on: Enterococcus faecium, ampicillin- and benzylpenicillin-resistant strain; assay: technique for evaluating cell wall integrity (lysis solution, nucleoid release, fluorescence microscopy); settings: 320 μg/mL, 60 minutes
Procedure: (§5) Different bacterial strains grown on a dish with Mueller-Hinton medium for 24 hours were subsequently exposed to a β-lactam antibiotic for 60 minutes in Mueller-Hinton liquid medium at 37° C., under stirring, and were finally processed by means of the technique for evaluating cell wall integrity according to the present invention.
as §4

[10] = tested on: Enterococcus faecalis, ampicillin-sensitive and benzylpenicillin-resistant strain; assay: as above; settings: 60 minutes
Procedure: as §5, §4

[11] = dose 32/16, 40 minutes, exponential liquid culture
[12] = low dose (8/4), bacteria from 24-hour dish culture
[13] = 32/16, 15 minutes of incubation

For amoxicilin/clavulanic acid, the “lysis of the bacteria, showing the nucleoids” value (shortened to “lysis of the bacteria”) [1, 11] was “lysed”, the “incubation time at which a clear effect started to show” value ([1]; bacteria from 24-hour dish culture) was 60 min and the “incubation time at which a clear effect started to show” value ([1]; liquid culture in exponential growth phase) was 30 to 40 min. For the same compound, the “lysis of the bacteria” value ([2]; dose 8/4 (8 μg/mL amoxicilin, 4 μg/mL clavulanic acid), 40 minutes) was “lysed”, the “lysis of the bacteria” value ([2]; dose 32/16, 40 minutes) was “lysed” and the “incubation time after which an effect (background, subtle cell lysis) started to be seen” value ([2]; high dose (32/16), bacteria from 24-hour dish culture) was 20 min. For the same compound, the “incubation time after which an effect started to be observed” value ([2]; low (8/4) and high (32/16) dose, liquid culture in exponential growth phase) was 10 min, the “incubation time after which the subtle effect was observed” value [2, 12] was 40 min and the “incubation time at which the effect became maximum (lysis of virtually all cells)” value [2, 12] was 60 min. The “effect on the wall” value ([3]; 8/4 and 32/16, liquid culture in exponential growth phase) was “did not show any effect at all”, the “effect on the wall” value ([3]; 8/4 and 32/16, up to 75 minutes, bacteria from 24-hour dish culture) was “did not show any effect at all” and the “lysis of the bacteria” value [3, 11] was “not lysed”. The “strains with complete wall lysis and intense background even at low dose (8/4), categorized as sensitive” value [4] was “Three”, the “strains with complete wall lysis and intense background only at high dose (32/16), intermediate sensitivity” value [4] was 5 and the “strains with non-lysed and moderately lysed cells, very faint or no background at high dose, categorized as resistant” value [4] was “Two”. The “background of extracellular DNA fragments, without lysis” value (“background … without lysis” for short) [5, 13] was “very clear background”, the “cells per mL, measured by Neubauer chamber” value [5, 13] was 42.5 million of cells per mL and the “OD 600” value ([5]; 32/16, 15 minutes of incubation, starting OD 600 0.07) was 0.071. For the same compound, the “OD 600” value ([5]; 32/16, 2 hours of incubation) was 0.033, the “cells per mL” value ([5]; 32/16, 2 hours of incubation) was 14.5 million of cells per mL and the “OD 600” value ([5]; 32/16, 3 hours) was 0.037. The “OD 600” value ([5]; 32/16, 4 hours) was 0.033, the “OD 600” value ([5]; 32/16, 6 hours) was 0.035 and the “cells per mL” value ([5]; 32/16, 6 hours) was 13.5 million of cells per mL. For the same compound, the “background … without lysis” value ([5]; 32/16, after 3 and 4 hours) was “poor”, the “background … without lysis” value ([5]; 32/16, after 6 hours) was “no longer observed” and the “cells per mL” value ([5]; 32/16, at both 3 and 4 hours) was 14 million of cells per mL. The “background … without lysis” value ([5]; 32/16, up to 2 hours of incubation) was “remains intense”, the “background … without lysis” value ([6]; high dose (32/16)) was “increases significantly” and the “background … without lysis” value ([6]; low dose (8/4)) was “evident”.
With `CC1(C)S[C@@H]2[C@H](NC(=O)Cc3ccccc3)C(=O)N2[C@H]1C(=O)O` [benzylpenicillin] the MIC [7] was over 32 µg/mL, the MIC [8] was over 32 µg/mL and the “background of extracellular DNA fragments” value [9] was “no background”. For the same compound, the heavily lysed cells [9] was 5%, the “background of extracellular DNA fragments” value ([10]; 16 μg/mL) was “some background” and the cells not lysed ([10]; 16 μg/mL) was 81%. For the same compound, the “lysed cells with a large halo” value ([10]; 16 μg/mL) was 4.5%, the “cells lysed with nucleoid with fragmented DNA” value ([10]; 32 μg/mL) was 4% and the cells not lysed ([10]; 32 μg/mL) was 65%. The “cells with a large halo” value ([10]; 32 μg/mL) was 4%, the “cells with a small halo” value ([10]; 320 μg/mL) was 25% and the non-lysed cells ([10]; 320 μg/mL) was 72.3%. The empty faint capsules ([10]; 16, 32 and 320 μg/mL) was 0.5-1.5%.
